The values below come from patent US11820762B2, “Compounds as potential therapeutic agents targeting various neurodegenerative diseases” (The Hong Kong University of Science and Technology, priority 2020, dated 2023).

Each structure is given as a SMILES string.

In data set [1] the test system is DNA (G4C2)2 (SEQ ID NO: 4) G4. Nature of the data set: 1D 1H-NMR titration of DNA (G4C2)2 G4. It counts as binding. The note with it: cA at 1:1, 1:5, 1:10. As to the method: (§1) Single […] were purchased from Integrated DNA Technologies (IDT) and Takara. Single-strand DNA/RNA sample at 100 μM was then annealed by heating up to 95° C. for 15 mins, and slowly cooled to room temperature in the annealing buffer (70 mM KCl, 20 mM potassium phosphate (pH 7.0)) for overnight. The final NMR samples contained 0.1 mM DNA or RNA in 70 mM KCl and 20 mM potassium phosphate buffer (pH 7.0).
(§2) The 1D ^1H-NMR spectra were performed at 25° C. All compounds were dissolved in isotope-labeled d6-DMSO (Sigma-Aldrich) at about 50 mM concentration, working as stock solutions. To avoid chemical shift changes of DNA/RNA G4 resulted from d6-DMSO addition, […] d6-DMSO was added into 500 μL of 0.1 mM DNA/RNA G4 solution in the NMR buffer (20 mM potassium phosphate buffer and 70 mM KCl, pH 7.0, 10% D2O) and then 1D ^1H-NMR spectrum was recorded as a reference. During NMR titration experiments of adding each compound into the DNA/RNA G4 solution, the maximal volume of 10 μL of each compound in d6-DMSO solution was regarded as a final data point.
(§3) In addition to the four-repeat G4C2 DNA G4, there are parallel and hybrid G4 conformations formed simultaneously by the two-repeat G4C2 DNA^38,39. […]

The test system of data set [2] is RNA (G4C2)2 (SEQ ID NO: 8) G4. Put plainly: 1D 1H-NMR titration of RNA (G4C2)2 G4. It counts as binding. Particulars: ratios 1:3, 1:5, 1:10. How it is done:
as §1
as §2, with “point. […]” for “point.”

Data set [3] concerns human telomeric variant htel21_T18 G4. Put plainly: 1D 1H-NMR titration of human telomeric variant htel21_T18 G4. It counts as binding. Particulars: cA at 1:10. As to the method:
as §1, §2, §3

For data set [4], the system named is DNA (G4C2)4 (SEQ ID NO: 5) G4. Nature of the data set: 1D 1H-NMR titration of DNA (G4C2)4 G4. Type of data set: binding. The note with it: for binding to DNA (G4C2)4 G4 by NMR titration: G4:compound ratio 1:1 to 1:10. As to the method: as §1, §2
We next confirmed the binding of cA and DNA (G4C2)4 (SEQ ID NO: 5) G4 by NMR titration experiments.

A short description of data set [5]: Parallel artificial membrane permeability assay (PAMPA). Type of data set: in vitro ADME. The note with it: 500 μM; 37° C., 18 hours. How it is done: 500 μL of 500 μM test compound and 200 μM Equilibrium Standards for each test compound were prepared. 5 μL DMSO plus 245 μL PBS served as blank control. Firstly, 300 μL PBS was added to each well in the acceptor plate. With the donor plate in its tray, 5 μL 4% Lecithin in Dodecane was added directly to the well membranes of the donor plate. 200 μL of each 500 μM test compound was added to duplicate wells of the donor plate. The donor plate was carefully placed into the acceptor plate wells and incubated at 37° C. for 18 hours. Then the liquid in acceptor plate wells was collected as Acceptor Solution for analysis. Absorbance spectrum from 200 nm to 500 nm in 10 nm intervals was read to determine the peak absorbance of test compounds and blank control.
In addition, we also tested the permeability on live cells. Neuro2a cells treated with cA at different concentrations (10 μg/ml, 20 μg/ml) for different incubation time (24 h, 48 h) were lysed. Supernatants of cell lysates were collected and analyzed by UPLC-MS. Meanwhile, cell media from different treatment groups were used as control. […] In contrast, the intensity of cA signal was the same in the three corresponding cell media groups (FIG. 25, 4-6).
In general terms: In PAMPA a lipid-coated filter parts donor from acceptor wells.

A further data set addresses T1, Tau-R3 (Homo sapiens, UniProt P10636).
T1 construct: Tau-R3 protein was synthesized and purchased from ChinaPeptides Co., Ltd; purchased ChinaPeptides Co., Ltd; host or cells: chemical synthesis
Nature of the data set: Thioflavin T (ThT) fluorescent tau-R3 aggregation assay. It counts as biochemical. The note with it: 20 μM Tau-R3, 10 μM heparin, read-out: IC50 of Tau-R3 aggregation inhibition (converted). As to the method:
Tau-R3 protein was synthesized and purchased from ChinaPeptides Co., Ltd. ThT (ab120751, 1 mM) solution was freshly prepared in 50 mM Tris-HCl buffer (pH 7.4) and passed through a 0.45 μm pore size filter to remove insoluble particles before use. Tau-R3 (20 μM) was incubated with 20 μM ThT and 10 μM heparin in the presence or absence of cA, cB and cC. Samples in 200 μL were added to 96-well plates and incubated at 37° C. for 24-48 hours. ThT fluorescence intensity was recorded using a microplate reader with 440/480 nm excitation/emission filters at different time points. Non-linear regression analysis was performed to fit the boltzmann sigmoidal.
In the C9orf72 ALS/FTD, there is a strong genetic association between the microtubule-binding protein, tau and the G4C2 HRE. […] The co-expression of Tau and G4C2 repeats produces a synergistic deterioration of the neurodegeneration phenotype of ALS/FTD^46. Considering the tight correlation of Tau aggregation with the ALS/FTD pathogenesis, we tested our compounds in a non-cell-based Tau-R3 aggregation inhibition assay. […] Moreover, we conducted high magnification TEM imaging to characterize the morphological changes of Tau-R3 fibrils with cA, cB and cC treatments. […] Furthermore, the misfolding of tau protein into filaments in neurons of the central nervous system can be found in various neurodegenerative diseases, such as Alzheimer's disease et al. Therefore, the inhibition on tau aggregation represented a potential of cA and its derivatives in targeting multiple other neurodegenerative diseases more than ALS.

For data set [6], the system named is differentiated HT22 cells. Nature of the data set: cells. Type of data set: cell-based. The note with it: for neuroprotective activity compared with cA: comparison of analogs; for EC50: Mus musculus, HT-22, differentiated HT22 cells pre-treated with 5 mM L-glutamate, cell viability. As to the method: Cytotoxicity of compounds was tested by MTT assay. Cells were grown in DMEM (Gibco) with 10% FBS and 1% penicillin-streptomycin at 37° C. with 5% CO2. In total, 5×10^3 cells were seeded in each well of 96-well plates and cultured for 24 hours. Then cells were treated with different concentrations of compounds dissolved in DMSO for another 24 hours. After incubating with 20 μl of MTT (5 mg/mL) for each well at 37° C. for another four hours, 100 μl of DMSO was added to dissolve formazan. Absorbance was measured using a Multiskan™ FC microplate photometer at 570 nm. IC50 data were analyzed with GraphPad Prism software.
Cultured HT22 cells were differentiated by applying 10 μM retinoic acid (Sigma-Aldrich, R2625-50MG) and 500 μM cAMP (Sigma-Aldrich, A6885) in DEME medium supplied with 0.5% FBS (differentiation medium) and incubated 48 hours before adding other treatments. 5 mM L-glutamate acid was applied to the original differentiation medium for further 24-hours incubation. Cell viability was measured by MTT assay described above.
In the C9orf72 associated ALS/FTD, the G4C2 HRE make motor neurons more vulnerable to aberrant neuron excitation^43. Meanwhile, the hyperactivation of glutamate receptors drives a toxic level of neuronal activity, promoting the non-ATG (RAN) translation of G4C2 repeat-associated DPR proteins^44, leading to further toxicity of motor neurons. Thus, we would like to test our compounds in a glutamate (E)-induced excitotoxicity cell model.

A further data set deals with T2, RRM domain of hnRNP H (Homo sapiens, UniProt P31943).
T2 construct: HSQC spectra of RRM1/2 of hnRNP H; hexahistidine (cleaved yes); made in house; host or cells: Escherichia coli BL21(DE3), pET-28a(+)
T2 sequence (P31943 1-194 limits assumed): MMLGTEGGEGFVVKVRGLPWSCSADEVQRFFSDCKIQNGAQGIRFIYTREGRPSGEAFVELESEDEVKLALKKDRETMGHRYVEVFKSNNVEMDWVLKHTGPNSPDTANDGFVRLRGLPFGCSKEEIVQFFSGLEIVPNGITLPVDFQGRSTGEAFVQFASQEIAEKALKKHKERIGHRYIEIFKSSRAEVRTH
Nature of the data set: 1H-15N HSQC NMR titration of hnRNP H RRM domain. It counts as binding. The note with it: ratios 1:5 and 1:10. As to the method:
The coding sequence of the RRM domain of hnRNP H/F, or human Orc6 was inserted into the expression vector pET-28a(+) (Novagen). Protein was expressed in Escherichia coli BL21(DE3) at 37° C. for 5 hours. Cell lysates were subject to affinity purification with nickel-nitrilotriacetic acid resin (Qiagen) followed by cleavage of hexahistidine tag with Protease 3C enzyme. Products were further purified on a Superdex 75 column (GE Healthcare). For NMR studies, uniformly ^15N labeled protein was expressed and purified as described above, except for cells grown in M9 medium containing 100% ^15N enriched ammonium chloride (Cambridge Isotopes) and d-glucose.
Titration experiments were performed by recording a series of 2D ^15N-HSQC spectra on uniformly ^15N-labeled RRM domain (˜0.1 mM) in the presence of different amounts of DNA/RNA or compounds at 25° C. Protein samples and stock solutions of DNA/RNA were all prepared in 20 mM potassium phosphate buffer and 70 mM KCl, pH 7.0, 10% D2O. All compounds were dissolved in isotope-labeled d6-DMSO (Sigma-Aldrich) at about 50 mM concentration, working as stock solutions. To avoid chemical shift changes of protein samples resulted from d6-DMSO addition, 10 μL d6-DMSO was added into 500 μL of 0.1 mM protein solution in the NMR buffer (20 mM potassium phosphate buffer and 70 mM KCl, pH 7.0, 10% D2O) and then the 2D HSQC was recorded as a reference.
In this scenario, specific RNA-binding proteins (RBPs), like hnRNP H, are recruited by the RNA foci, resulting in RNA processing impairment and further cytotoxicity to the central nervous system^30,36,37. Therefore, we tested the binding possibility of cA with the RRM domain of hnRNP H by NMR titration. […] Intriguingly, the DNA (G4C2)4 (SEQ ID NO: 5) G4 was also shown a potent binding affinity to the RRM domain of hnRNP H (FIG. 4C).

By IC50 is commonly meant the concentration that gives 50% inhibition. The term EC50 denotes the midpoint of the concentration-response curve.

T1 sequence (P10636 623-653 limits assumed): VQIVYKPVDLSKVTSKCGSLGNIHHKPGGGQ

Regarding `N=C(N)c1ccc(-c2ccc(-c3ccc(-c4ccc(C(=N)N)cn4)o3)o2)nc1` [DB1246, reference compound], in data set [1], the “binding to DNA (G4C2)2 G4 by NMR titration” value is on record as “strongly bound”. Further, the “binding to RNA (G4C2)2 G4 by NMR titration” value in data set [2] is “strongly bound”. The “binding to htel21_T18 G4 by NMR titration” value in data set [3] is “strongly bound”. Moreover, the “binding to DNA (G4C2)4 G4 by NMR titration” value in data set [4] is recorded as “strongly bound”. For the same molecule, the “permeability (PAMPA)” value in data set [5] is “much worse permeability than cA, cB, cC”.

For the molecule `COc1c2c(c(OC)c3c(=O)c4cccc(O[C@@H]5O[C@H](C(=O)O)[C@@H](O)[C@H](O)[C@H]5O)c4oc13)-c1c(cc(CC(C)=O)c(C(=O)O)c1O)CC2` [cE, chrexanthomycin E], the IC50 at Tau-R3 is 6.13 µM. Besides, in data set [6], the “cytotoxicity (structure-activity summary)” value was “showed cytotoxicity” and the “neuroprotective activity compared with cA” value was “worse than cA”.

For the molecule `COCCOC(=O)C1=C(C)NC(C)=C(C(=O)OC(C)C)C1c1cccc([N+](=O)[O-])c1` (stereo not drawn) [nimodipine, reference compound], the concentration for a half-maximal effect (EC50) in data set [6] was determined as 1.14 µM.

In the case of `C[C@@]1(O)Cc2cc3c(c(O)c2C(=O)O1)-c1c(c(O)c(O)c2c(=O)c4cccc(O[C@@H]5OC(C(=O)O)=C[C@H](O)[C@H]5O)c4oc12)CC3` [cF, chrexanthomycin F], the “binding to RRM domain of hnRNP H by NMR titration” value on RRM domain of hnRNP H is given as “much weaker bindings”. Besides, in data set [4] (DNA (G4C2)4 G-quadruplex and hnRNP H, FIGS. 3C-3E), the “binding affinity order according to NMR titration” value is “cC>cA>cB>cF”. Further, the “binding to DNA (G4C2)4 G4 by NMR titration” value in data set [4] was “proved to bind”. For the same molecule, the “neuroprotective activity compared with cA” value in data set [6] is on record as “worse than cA”.

On to `CC12CC3CC(C)(C1)CC(N)(C3)C2` [memantine, reference compound], for which, in data set [6], the EC50 was 23.9 µM.

For the molecule `COc1c2c(c(O)c3c(=O)c4cccc(O[C@@H]5O[C@H](C(=O)O)[C@@H](O)[C@H](O)[C@H]5O)c4oc13)-c1c(cc(CC(C)=O)c(C(=O)O)c1O)CC2` [cD, chrexanthomycin D], the half-inhibitory concentration (IC50) on Tau-R3 was 4.75 µM. In data set [6], the “cytotoxicity (structure-activity summary)” value was “showed cytotoxicity”, the half-maximal effective concentration (EC50) came to 53.6 µM and the “neuroprotective activity compared with cA” value is “worse than cA”.
